Article PMC2664976 (The Journal of General Physiology, 2009)

How the values were obtained:
wtCFTR = wtCFTR (Homo sapiens, UniProt P13569); test: whole cell patch clamp, HEK […] chloride current; assay type: cell-based
SLC26A9 = biological target: T1, SLC26A9 (Homo sapiens, UniProt Q7LBE3); test: whole cell patch clamp, HEK […] chloride current; assay type: cell-based; settings: read-out: % inhibition at 50 μM
T1 sequence (Q7LBE3 1-791): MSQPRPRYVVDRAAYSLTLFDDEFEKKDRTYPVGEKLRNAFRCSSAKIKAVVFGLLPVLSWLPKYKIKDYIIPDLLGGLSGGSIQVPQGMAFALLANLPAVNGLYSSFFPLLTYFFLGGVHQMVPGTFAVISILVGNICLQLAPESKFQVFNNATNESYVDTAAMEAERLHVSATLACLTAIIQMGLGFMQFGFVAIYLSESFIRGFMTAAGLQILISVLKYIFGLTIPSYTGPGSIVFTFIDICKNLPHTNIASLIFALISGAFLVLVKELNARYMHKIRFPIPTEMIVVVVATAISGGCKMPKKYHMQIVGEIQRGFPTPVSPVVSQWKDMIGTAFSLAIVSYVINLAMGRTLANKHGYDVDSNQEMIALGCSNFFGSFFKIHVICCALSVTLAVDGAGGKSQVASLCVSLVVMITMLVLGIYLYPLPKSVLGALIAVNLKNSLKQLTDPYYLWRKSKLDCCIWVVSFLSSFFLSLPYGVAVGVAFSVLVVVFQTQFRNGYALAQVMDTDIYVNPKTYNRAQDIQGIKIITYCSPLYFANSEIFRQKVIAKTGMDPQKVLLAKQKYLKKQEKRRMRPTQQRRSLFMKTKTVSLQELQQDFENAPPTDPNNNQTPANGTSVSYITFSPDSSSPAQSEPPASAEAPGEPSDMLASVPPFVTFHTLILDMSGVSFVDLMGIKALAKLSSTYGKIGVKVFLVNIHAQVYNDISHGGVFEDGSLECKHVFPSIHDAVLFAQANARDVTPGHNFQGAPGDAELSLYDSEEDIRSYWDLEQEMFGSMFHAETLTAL

Sequence of wtCFTR (P13569 whole entry): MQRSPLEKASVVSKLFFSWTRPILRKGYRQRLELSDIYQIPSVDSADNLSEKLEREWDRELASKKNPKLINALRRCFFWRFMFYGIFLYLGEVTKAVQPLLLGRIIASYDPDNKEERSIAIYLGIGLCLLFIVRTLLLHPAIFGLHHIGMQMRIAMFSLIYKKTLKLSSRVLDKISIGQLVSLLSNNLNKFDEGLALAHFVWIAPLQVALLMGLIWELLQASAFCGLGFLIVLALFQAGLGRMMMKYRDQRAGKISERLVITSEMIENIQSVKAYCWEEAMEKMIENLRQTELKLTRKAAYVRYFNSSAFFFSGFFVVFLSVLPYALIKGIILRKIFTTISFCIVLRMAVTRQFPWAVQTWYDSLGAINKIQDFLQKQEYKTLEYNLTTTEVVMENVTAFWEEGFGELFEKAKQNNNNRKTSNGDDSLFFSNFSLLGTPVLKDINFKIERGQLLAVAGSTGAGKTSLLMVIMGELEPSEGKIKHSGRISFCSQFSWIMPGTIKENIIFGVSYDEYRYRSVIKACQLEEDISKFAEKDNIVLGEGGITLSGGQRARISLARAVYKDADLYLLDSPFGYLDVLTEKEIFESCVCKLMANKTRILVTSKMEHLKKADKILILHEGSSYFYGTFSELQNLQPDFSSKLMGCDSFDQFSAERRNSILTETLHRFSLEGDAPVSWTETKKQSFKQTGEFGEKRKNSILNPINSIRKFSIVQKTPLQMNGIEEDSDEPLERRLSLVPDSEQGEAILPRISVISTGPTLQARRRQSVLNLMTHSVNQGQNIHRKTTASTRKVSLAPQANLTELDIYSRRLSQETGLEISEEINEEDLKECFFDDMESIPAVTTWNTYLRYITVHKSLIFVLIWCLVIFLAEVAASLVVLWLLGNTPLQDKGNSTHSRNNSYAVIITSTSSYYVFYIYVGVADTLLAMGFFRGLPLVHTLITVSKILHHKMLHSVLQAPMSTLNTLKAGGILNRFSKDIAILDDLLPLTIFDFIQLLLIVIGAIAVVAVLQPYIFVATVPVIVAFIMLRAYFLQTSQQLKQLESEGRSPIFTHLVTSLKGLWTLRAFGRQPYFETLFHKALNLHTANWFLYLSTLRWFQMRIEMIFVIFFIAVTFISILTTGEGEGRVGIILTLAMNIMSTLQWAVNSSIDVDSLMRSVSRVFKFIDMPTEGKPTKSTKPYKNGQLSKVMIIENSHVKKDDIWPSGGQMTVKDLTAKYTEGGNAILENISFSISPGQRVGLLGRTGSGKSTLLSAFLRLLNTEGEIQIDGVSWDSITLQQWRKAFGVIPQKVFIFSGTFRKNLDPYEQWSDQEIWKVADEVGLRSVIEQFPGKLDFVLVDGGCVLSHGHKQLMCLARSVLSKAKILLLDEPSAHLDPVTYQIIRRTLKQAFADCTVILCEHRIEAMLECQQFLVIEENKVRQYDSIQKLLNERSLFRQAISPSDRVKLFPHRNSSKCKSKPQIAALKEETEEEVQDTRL

SMILES	inhibition at 50 µM (wtCFTR; read-out: % inhibition (GlyH-101, 50 μM)) [%]	inhibition at 50 µM (SLC26A9) [%]	inhibition at 100 µM (wtCFTR; read-out: % inhibition (glibenclamide, 100 μM)) [%]
O=C(CNc1ccc2ccccc2c1)NN=Cc1cc(Br)c(O)c(Br)c1O [GlyH-101]	90 ± 2	71 ± 4	–
COc1ccc(Cl)cc1C(=O)NCCc1ccc(S(=O)(=O)NC(=O)NC2CCCCC2)cc1 [glibenclamide]	–	–	52 ± 10
